Laboratory results published in US12209102B2, “Heterocyclic compounds and uses thereof” (Kumquat Biosciences Inc., priority 2022, dated 2025).

Columns and labels:
Format in all cases: biochemical
[1] = target: T1, K-Ras WT (Homo sapiens, UniProt P01116); assay: HTRF resonance energy transfer assay, K-Ras WT / SOS1 interaction; conditions: HTRF assay of Example 5; read-out: IC50 against K-Ras WT
T1 construct: made in house; host or cells: E. coli BL21 (DE3)
From the text: (§1) This assay can be also used to assess a selective inhibition or reduction of signaling output of a mutant Ras protein relative to a wildtype, or relative to a different mutant Ras protein. For example, the equilibrium interaction of wildtype Kras or K-Ras mutant (e.g., wildtype or a mutant thereof) with SOS1 (e.g., hSOS1) can be assessed as a proxy or an indication for a subject compound's ability to bind and inhibit Ras protein. HTRF assay detects from (i) a fluorescence resonance energy transfer (FRET) donor (e.g., antiGST-Europium) that is bound to GST-tagged K-Ras mutant to (ii) a FRET acceptor (e.g., anti-6His-XL665) bound to a His-tagged hSOS1.
(§2) The assay buffer can contain˜5 mM HEPES pH 7.4, ˜150 mM NaCl, ˜ 1 mM DTT, 0.05% BSA and 0.0025%(v/v) Igepal. A Ras working solution is prepared in an assay buffer containing typically a suitable amount of the protein construct (e.g., GST-tagged K-Ras mutant) and the FRET donor (e.g., antiGST-Eu(K) from Cisbio, France). A SOS1 working solution is prepared in an assay buffer containing suitable amount of the protein construct (e.g., His-hSOS1) and the FRET acceptor (e.g., anti-6His-XL665 from Cisbio, France). A suitable amount of the protein construct will depend on the range of activity or range of IC50 values being detected or under investigation. For detecting IC50 within a range of 500 nM, the protein constructs of the same range of molarity can be utilized.
(§3) A fixed volume of DMSO with or without test compound is transferred into a 384-well plate. Ras working solution is added to all wells of the test plate. SOS1 working solution is added to all wells except for those that are subsequently filled the inhibitor control solution. Upon incubation for about 10 minutes or longer, the fluorescence is measured with a M1000Pro plate reader (Tecan) using HTRF detection (excitation 337 nm, emission 1: 620 nm, emission 2: 665 nm). Compounds are tested in duplicates at different concentrations (for example, 10 μM, 2.5 μM, 0.63 μM, 0.16 μM, 0.04 μM, 0.01 μM test compound). The ratiometric data (i.e., emission 2 divided by emission 1) is used to calculate IC50 values against Ras using GraphPad Prism (GraphPad software). Following this general procedure, samples were tested with or without a subject compound disclosed herein including compounds exemplified in Table 1 to assess their abilities to inhibit a K-Ras mutant relative to another mutant or WT. Signaling output measured in terms of IC50 values can be obtained, a ratio of IC50 against one mutant relative to another mutant can be calculated. For instance, a selective reduction of K-Ras G12D signaling output can be evidenced by a ratio greater than one. In particular, a selective reduction of K-Ras G12D signaling relative to K-Ras WT signaling is evidenced as the ratio of IC50 (against K-Ras WT) to IC50 (against K-Ras G12D) is greater than 1.

[2] = target: T2, K-Ras G12D (Homo sapiens, UniProt P01116, G12D); assay: HTRF resonance energy transfer assay, K-Ras G12D / SOS1 interaction; conditions: HTRF assay of Example 5; read-out: IC50 against K-Ras G12D
T2 construct: made in house; host or cells: E. coli BL21 (DE3)
T2 sequence (P01116 1-188 isoform P01116-2 G12D): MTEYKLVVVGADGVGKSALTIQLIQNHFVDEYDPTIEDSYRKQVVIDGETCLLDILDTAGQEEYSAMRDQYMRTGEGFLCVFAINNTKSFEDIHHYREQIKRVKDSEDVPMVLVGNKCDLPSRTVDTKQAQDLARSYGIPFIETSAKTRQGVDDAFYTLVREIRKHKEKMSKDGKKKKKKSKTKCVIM
From the text: as §1, §2, §3

[3] = target: T3, K-Ras G12V (Homo sapiens, UniProt P01116, G12V); assay: HTRF resonance energy transfer assay, K-Ras G12V / SOS1 interaction; conditions: HTRF assay of Example 5; read-out: IC50 against K-Ras G12V
T3 construct: made in house; host or cells: E. coli BL21 (DE3)
T3 sequence (P01116 1-188 isoform P01116-2 G12V): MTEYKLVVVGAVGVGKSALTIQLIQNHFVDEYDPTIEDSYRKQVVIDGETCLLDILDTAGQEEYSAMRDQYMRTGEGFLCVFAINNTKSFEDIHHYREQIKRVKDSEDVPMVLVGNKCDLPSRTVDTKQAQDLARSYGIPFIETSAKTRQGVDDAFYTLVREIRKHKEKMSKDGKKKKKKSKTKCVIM
From the text: as §1, §2, §3

[4] = target: T4, K-Ras G12S (Homo sapiens, UniProt P01116, G12S); assay: HTRF resonance energy transfer assay, K-Ras G12S / SOS1 interaction; conditions: HTRF assay of Example 5; read-out: IC50 against K-Ras G12S
T4 construct: made in house; host or cells: E. coli BL21 (DE3)
T4 sequence (P01116 1-188 isoform P01116-2 G12S): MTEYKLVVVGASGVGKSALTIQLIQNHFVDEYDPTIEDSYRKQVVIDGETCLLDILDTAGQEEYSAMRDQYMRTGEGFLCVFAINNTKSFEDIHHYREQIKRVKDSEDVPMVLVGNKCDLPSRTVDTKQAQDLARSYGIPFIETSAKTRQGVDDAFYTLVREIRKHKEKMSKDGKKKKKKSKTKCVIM
From the text: as §1, §2, §3

Measured: IC50

T1 sequence (P01116 1-188 isoform P01116-2): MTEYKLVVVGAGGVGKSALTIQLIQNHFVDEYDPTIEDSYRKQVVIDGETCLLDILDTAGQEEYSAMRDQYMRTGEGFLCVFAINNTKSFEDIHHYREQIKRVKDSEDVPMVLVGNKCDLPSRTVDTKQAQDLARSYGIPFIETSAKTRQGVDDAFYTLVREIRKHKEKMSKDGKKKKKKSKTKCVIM

C=C(C(F)F)[C@H]1COc2c(Cl)c(-c3ccc(F)c4sc(N)c(C#N)c34)c(F)c3nc(OC[C@@]45CCCN4C[C@H](F)C5)nc(c23)N1CC(F)F (single isomer, unassigned) [Compound 629]
< 100 nM: all assays above

N#Cc1c(N)sc2c(F)ccc(-c3c(Cl)c4c5c(nc(OC[C@@]67CCCN6C[C@H](F)C7)nc5c3F)N(CC(F)F)[C@@H](c3cnco3)CO4)c12 (single isomer, unassigned) [Compound 763]
< 100 nM: all assays above

C=C[C@H]1COc2c(Cl)c(-c3ccc(F)c4sc(N)c(C#N)c34)c(F)c3nc(OC[C@@]45CCCN4C[C@H](F)C5)nc(c23)N1CCC(F)F (single isomer, unassigned) [Compound 906]
< 100 nM: all assays above

C=C[C@H]1COc2c(Cl)c(-c3ccc(F)c4sc(N)c(C#N)c34)c(F)c3nc(OC[C@@]45CCCN4C[C@H](F)C5)nc(c23)N1CCOC (single isomer, unassigned) [Compound 917]
< 100 nM: all assays above

N#Cc1c(N)sc2c(F)ccc(-c3c(Cl)c4c5c(nc(OC[C@@]67CCCN6C[C@H](F)C7)nc5c3F)N(C3CCN(C5CC5)C3)CCO4)c12 (stereo partly drawn) [Compound 631, 2-amino-4-(8-chloro-4-(1-cyclopropylpyrrolidin-3-yl)-10-fluoro-2-(((2R,7aS)-2-fluorotetrahydro-1H-pyrrolizin-7a(5H)-yl)methoxy)-5,6-dihydro-4H-[1,4]oxazepino[5,6,7-de]quinazolin-9-yl)-7-fluorobenzo[b]thiophene-3-carbonitrile]
< 100 nM: all assays above

N#Cc1c(N)sc2c(F)ccc(-c3c(Cl)c4c5c(nc(OC[C@@]67CCCN6C[C@H](F)C7)nc5c3F)N(CC(F)F)[C@@H](C3CCC3)CO4)c12 [Compound 692, 2-amino-4-((S)-8-chloro-5-cyclobutyl-4-(2,2-difluoroethyl)-10-fluoro-2-(((2R,7aS)-2-fluorotetrahydro-1H-pyrrolizin-7a(5H)-yl)methoxy)-5,6-dihydro-4H-[1,4]oxazepino[5,6,7-de]quinazolin-9-yl)-7-fluorobenzo[b]thiophene-3-carbonitrile]
< 100 nM: [1] | [2] | [3]

N#Cc1c(N)sc2c(F)ccc(-c3c(Cl)c4c5c(nc(OC[C@@]67CCCN6C[C@H](F)C7)nc5c3F)N(C3CC35CCNC5)CCO4)c12 (stereo partly drawn) [Compound 735, 2-amino-4-(8-chloro-10-fluoro-2-(((2R,7aS)-2-fluorotetrahydro-1H-pyrrolizin-7a(5H)-yl)methoxy)-4-(5-azaspiro[2.4]heptan-1-yl)-5,6-dihydro-4H-[1,4]oxazepino[5,6,7-de]quinazolin-9-yl)-7-fluorobenzo[b]thiophene-3-carbonitrile]
< 100 nM: all assays above

N#Cc1c(N)sc2c(F)ccc(-c3c(Cl)c4c5c(nc(OC[C@@]67CCCN6C[C@H](F)C7)nc5c3F)N(CC3CC3C#N)CCO4)c12 (stereo partly drawn) [Compound 738, 2-amino-4-(8-chloro-4-((2-cyanocyclopropyl)methyl)-10-fluoro-2-(((2R,7aS)-2-fluorotetrahydro-1H-pyrrolizin-7a(5H)-yl)methoxy)-5,6-dihydro-4H-[1,4]oxazepino[5,6,7-de]quinazolin-9-yl)-7-fluorobenzo[b]thiophene-3-carbonitrile]
< 100 nM: all assays above

N#Cc1c(N)sc2c(F)ccc(-c3c(Cl)c4c5c(nc(OC[C@@]67CCCN6C[C@H](F)C7)nc5c3F)N(CC(F)F)[C@@H](C3CC(C#N)C3)CO4)c12 (stereo partly drawn) [Compound 753, 2-amino-4-((S)-8-chloro-5-(3-cyanocyclobutyl)-4-(2,2-difluoroethyl)-10-fluoro-2-(((2R,7aS)-2-fluorotetrahydro-1H-pyrrolizin-7a(5H)-yl)methoxy)-5,6-dihydro-4H-[1,4]oxazepino[5,6,7-de]quinazolin-9-yl)-7-fluorobenzo[b]thiophene-3-carbonitrile]
< 100 nM: all assays above

N#Cc1c(N)sc2c(F)ccc(-c3c(Cl)c4c5c(nc(OC[C@@]67CCCN6C[C@H](F)C7)nc5c3F)N(C3CCNCC3)CCO4)c12 [Compound 760, 2-amino-4-(8-chloro-10-fluoro-2-(((2R,7aS)-2-fluorotetrahydro-1H-pyrrolizin-7a(5H)-yl)methoxy)-4-(piperidin-4-yl)-5,6-dihydro-4H-[1,4]oxazepino[5,6,7-de]quinazolin-9-yl)-7-fluorobenzo[b]thiophene-3-carbonitrile]
< 100 nM: all assays above

C[C@H]1CN(C2CCN(C(=O)C(F)F)CC2)c2nc(OC[C@@]34CCCN3C[C@H](F)C4)nc3c(F)c(-c4ccc(F)c5sc(N)c(C#N)c45)c(Cl)c(c23)O1 [Compound 822, 2-amino-4-((6S)-8-chloro-4-(1-(2,2-difluoroacetyl)piperidin-4-yl)-10-fluoro-2-(((2R,7aS)-2-fluorotetrahydro-1H-pyrrolizin-7a(5H)-yl)methoxy)-6-methyl-5,6-dihydro-4H-[1,4]oxazepino[5,6,7-de]quinazolin-9-yl)-7-fluorobenzo[b]thiophene-3-carbonitrile]
< 100 nM: [1] | [2] | [4]

CS(=O)(=O)NCC1COc2c(Cl)c(-c3ccc(F)c4sc(N)c(C#N)c34)c(F)c3nc(OC[C@@]45CCCN4C[C@H](F)C5)nc(c23)N1CC(F)F (stereo partly drawn) [Compound 867, N-((9-(2-amino-3-cyano-7-fluorobenzo[b]thiophen-4-yl)-8-chloro-4-(2,2-difluoroethyl)-10-fluoro-2-(((2R,7aS)-2-fluorotetrahydro-1H-pyrrolizin-7a(5H)-yl)methoxy)-5,6-dihydro-4H-[1,4]oxazepino[5,6,7-de]quinazolin-5-yl)methyl)methanesulfonamide]
< 100 nM: [1] | [2] | [4]

N#Cc1c(N)sc2c(F)ccc(-c3c(Cl)c4c5c(nc(OC[C@@]67CCCN6C[C@H](F)C7)nc5c3F)N(CC3(C(F)(F)F)CC3)CCO4)c12 [Compound 953, 2-amino-4-(8-chloro-10-fluoro-2-(((2R,7aS)-2-fluorotetrahydro-1H-pyrrolizin-7a(5H)-yl)methoxy)-4-((1-(trifluoromethyl)cyclopropyl)methyl)-5,6-dihydro-4H-[1,4]oxazepino[5,6,7-de]quinazolin-9-yl)-7-fluorobenzo[b]thiophene-3-carbonitrile]
< 100 nM: [1] | [2] | [4]

N#Cc1c(N)sc2c(F)ccc(-c3c(Cl)c4c5c(nc(OC[C@@]67CCCN6C[C@H](F)C7)nc5c3F)N(CC(F)F)C(C3CCNC3)CO4)c12 (stereo partly drawn) [Compound 1034, 2-amino-4-(8-chloro-4-(2,2-difluoroethyl)-10-fluoro-2-(((2R,7aS)-2-fluorotetrahydro-1H-pyrrolizin-7a(5H)-yl)methoxy)-5-(pyrrolidin-3-yl)-5,6-dihydro-4H-[1,4]oxazepino[5,6,7-de]quinazolin-9-yl)-7-fluorobenzo[b]thiophene-3-carbonitrile]
< 100 nM: [1] | [2] | [4]
